Measured values as given in BindingDB's records for doi:10.1016/j.bmc.2008.04.010 (Astellas Pharma, 2008).

Target: T1, Glycogen phosphorylase, liver form (Homo sapiens, UniProt P06737)
T1 sequence (P06737 whole entry): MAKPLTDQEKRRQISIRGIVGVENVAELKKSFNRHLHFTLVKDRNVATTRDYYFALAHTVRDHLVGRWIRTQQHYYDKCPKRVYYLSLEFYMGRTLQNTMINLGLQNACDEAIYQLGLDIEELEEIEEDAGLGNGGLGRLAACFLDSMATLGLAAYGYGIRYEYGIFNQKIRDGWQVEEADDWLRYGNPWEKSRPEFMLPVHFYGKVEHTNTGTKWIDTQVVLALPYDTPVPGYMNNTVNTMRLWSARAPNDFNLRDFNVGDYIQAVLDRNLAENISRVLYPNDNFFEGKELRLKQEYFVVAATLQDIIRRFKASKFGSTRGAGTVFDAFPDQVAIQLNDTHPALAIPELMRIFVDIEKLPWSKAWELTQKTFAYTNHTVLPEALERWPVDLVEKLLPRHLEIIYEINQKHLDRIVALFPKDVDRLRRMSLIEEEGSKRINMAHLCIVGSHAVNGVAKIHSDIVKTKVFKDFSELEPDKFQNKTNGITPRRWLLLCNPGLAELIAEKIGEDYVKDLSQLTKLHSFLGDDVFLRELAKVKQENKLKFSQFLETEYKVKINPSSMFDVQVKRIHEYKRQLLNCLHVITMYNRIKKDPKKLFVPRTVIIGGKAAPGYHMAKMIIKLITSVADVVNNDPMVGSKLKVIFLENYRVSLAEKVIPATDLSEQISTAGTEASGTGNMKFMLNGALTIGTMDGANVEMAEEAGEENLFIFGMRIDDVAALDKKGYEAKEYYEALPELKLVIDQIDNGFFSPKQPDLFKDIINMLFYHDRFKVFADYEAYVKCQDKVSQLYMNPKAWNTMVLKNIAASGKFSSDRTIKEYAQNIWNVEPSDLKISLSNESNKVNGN
Test: Glycogen Phosphorylase Activity Assay
Conditions: pH 6.8; 22 °C
Description: The activity of recombinant human liver GPa in the forward direction was measured by monitoring the production of NADPH. Enzyme activity was assayed at pH 6.8 in phosphate buffer containing beta-NADP, alpha -glucose 1,6-bisphosphate, glucose-6-phophate dehydrogenase, phosphoglucomutase, glycogen, and glucose. […] The reaction was started by adding hLGPa solution (beta-glycerophosphate and cystein, pH 6.8). The reaction took place at room temperature, and the conversion of oxidized beta-NADP to reduced beta-NADPH was measured at 340 nm for 2 h. The hLGPa inhibition IC50 values were calculated using the logistic regression method and SAS software.

Question: With `O=C(Nc1ccc(C(O)CO)cc1Cl)c1cc2cc(Cl)ccc2[nH]1` (stereo not drawn) [5-chloroindolecarboxamide, 9c] as the compound, how does the IC50 read?
Answer: 1100 nM

Question: For `O=C(Nc1ccc(C(O)CO)c(F)c1)c1cc2cc(Cl)ccc2[nH]1` (stereo not drawn) [5-chloroindolecarboxamide, 9g], which IC50 is on record?
Answer: 340 nM

Question: For `O=C(Nc1ccc(C(O)CO)cc1F)c1cc2cc(Cl)ccc2[nH]1` (stereo not drawn) [5-chloroindolecarboxamide, 9b], which IC50 is on record?
Answer: 420 nM
